biological target: T1, Chk2 (Homo sapiens, UniProt O96017); assay: In vitro kinase assay with recombinant Chk2 (MBP phosphorylation, [γ-33P]ATP); type: biochemical; conditions: recombinant human GST-Chk2 10 nM, 25 μM MBP, 100 μM ATP, 30 min at 24° C.; read-out: The enzymatic IC50 values of compounds against Chk2
T1 construct: GST; purchased Upstate (Lake Placid, N.Y.)
Description: In vitro kinase assays with recombinant Chk1 and Chk2. Recombinant human GST-Chk1 and GST-Chk2 proteins were purchased from Upstate (Lake Placid, N.Y.). Assay conditions were based on published protocols with minor modifications. Briefly, 10 nM of Chk1 or Chk2 was used to phosphorylate 25 μM myelin basic protein (MBP) (Invitrogen, Carlsbad, Calif.) This reaction took place in a buffer that contained 8 mM MOPS, pH 7.2, 10 mM β-glycerol phosphate, 1.5 mM EGTA, 0.4 mM EDTA, 0.4 mM sodium orthovanadate, 100 μM ATP, 1 μCi [γ-^33P] ATP, 15 mM MgCl2, 0.4 mM DTT, 0.006% Brij-35, 1% glycerol and 0.2 mg/ml BSA in a final volume of 25 μl. The reaction was incubated for 30 minutes at 24° C. and was terminated by adding 100 μl of 1% trichloroacetic acid. The quenched solution was incubated for 5 min at room temperature to allow the protein to precipitate and then subsequently transferred to a 96-well white GF/B filter plate (Perkin Elmer, Wellesley, Mass.) using a Perkin Elmer Filtermate Universal Harvester. The filter plate was washed ten times with water and once with ethanol before completely drying. 40 μL of Microscint™ (Perkin Elmer, Wellesley, Mass.) was added to each well and the radioactivity that was incorporated into MBP was counted using a Perkin Elmer TopCount. The compound was titrated and its IC50 values against both Chk1 and Chk2 were determined. The reported IC50 values are the average of at least two sets of data. To determine the competitive nature of the compound with ATP, the compound concentration was varied from 0-200 nM while ATP was varied from 50-500 μM in the assays to assess the ATP effect on inhibition. Prism 4.0 software (GraphPad, San Diego Calif.) was used for the IC50 determination and Lineweaver-Burk kinetic analysis.

T1 sequence (O96017 whole entry): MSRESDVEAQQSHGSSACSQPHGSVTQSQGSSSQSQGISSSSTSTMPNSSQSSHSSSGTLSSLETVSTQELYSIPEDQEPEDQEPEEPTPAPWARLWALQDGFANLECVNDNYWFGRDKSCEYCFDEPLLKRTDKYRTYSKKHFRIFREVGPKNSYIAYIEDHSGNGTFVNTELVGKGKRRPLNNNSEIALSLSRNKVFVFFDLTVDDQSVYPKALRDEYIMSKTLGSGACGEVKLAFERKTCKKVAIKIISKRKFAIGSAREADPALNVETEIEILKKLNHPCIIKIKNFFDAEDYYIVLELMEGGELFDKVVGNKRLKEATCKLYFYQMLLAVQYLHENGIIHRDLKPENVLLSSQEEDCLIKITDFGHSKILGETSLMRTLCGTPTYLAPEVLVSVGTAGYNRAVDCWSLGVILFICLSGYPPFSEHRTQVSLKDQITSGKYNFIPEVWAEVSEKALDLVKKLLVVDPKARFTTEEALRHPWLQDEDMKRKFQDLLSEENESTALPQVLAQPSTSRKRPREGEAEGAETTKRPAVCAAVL

Structure (SMILES) | IC50 [nM]
CC(C)NC(=N)c1c(O)nsc1Nc1ccc(Nc2ccc(Br)cc2)cc1 [Entry 1] | 1 to 500
CC(CO)NC(=N)c1c(O)nsc1Nc1ccc(Nc2ccc(Br)cc2)cc1 (stereo not shown) [Entry 2] | 1 to 500
N=C(NCCO)c1c(O)nsc1Nc1ccc(Nc2ccc(Br)cc2)cc1 [Entry 3] | 1 to 500
N=C(NCC1CCCCC1)c1c(O)nsc1Nc1ccc(Nc2ccc(Br)cc2)cc1 [Entry 4] | 1 to 500
N=C(NCCCCO)c1c(O)nsc1Nc1ccc(Nc2ccc(Br)cc2)cc1 [Entry 5] | 1 to 500
N=C(NCC(O)CO)c1c(O)nsc1Nc1ccc(Nc2ccc(Br)cc2)cc1 (stereo not shown) [Entry 6] | 1 to 500

Now from value to molecule:

IC50 [nM] | Structure (SMILES)
1 to 500 | CC(C)NC(=N)c1c(O)nsc1Nc1ccc(Nc2ccccc2)cc1 [Entry 7]
1 to 500 | CC(CO)NC(=N)c1c(O)nsc1Nc1ccc(Nc2ccccc2)cc1 (stereo not shown) [Entry 8]
500 to 1000 | N=C(NCCO)c1c(O)nsc1Nc1ccc(Nc2ccccc2)cc1 [Entry 9]
1000 to 2000 | N=C(NCC1CCCCC1)c1c(O)nsc1Nc1ccc(Nc2ccccc2)cc1 [Entry 10]
1000 to 2000 | N=C(NCCCCO)c1c(O)nsc1Nc1ccc(Nc2ccccc2)cc1 [Entry 11]
500 to 1000 | N=C(NCC(O)CO)c1c(O)nsc1Nc1ccc(Nc2ccccc2)cc1 (stereo not shown) [Entry 12]
1 to 500 | N=C(NCc1cccc2ccccc12)c1c(O)nsc1Nc1ccc(Nc2ccccc2)cc1 [Entry 13]
